{
  "source": "patent US20200214296A1",
  "about": "“MICROBICIDAL COMPOSITION” (DDP Specialty Electronic Materials US, Inc., priority 2017, published 2020)",
  "key": {"Thermus thermophilus": {"tested_on": "Thermus thermophilus", "test": "Synergy in the planktonic phase, biocide challenge with resazurin regrowth readout", "format": "cell-based, Thermus thermophilus (DSM: 579)", "description": "The inoculum prepared added between to 1*10^8 to 1*10^9 total cells/ml (in each well). At several timepoints 20 microliter aliquots of each treatment (well) were added to 96 well plates with TSB+Resazurin. These 96 well plates were filled with 'recovery' media (TSB 30 grams/liter). One of such plates was prepared for each column of the assay block. 180 μl recovery media was added to each well of a 96 well plate, except for column 1 of the recovery plate. This column was filled with 180 μl of one column of the assay block. The last three columns on the recovery plate were not pipetted. These columns represented the no template control for verifying proper plate set up and data reliability. […] The recovery plates were subsequently read (checked for microbial growth) at 24 and 48 hours after addition of the culture. Plate reading took place twice for each time point, to look at potential changes. Reading took place utilizing separate 96 wells plates pre filled with fresh media. […] This was done in triplicate for each point (the triplicate is already present in the biocide block viz. each point is truly determined in triplicate). […] Ranking was done per average value of three data points determined per experiment. (Recorded in log regrowth). […]"}, "[1]": {"tested_on": "Pseudomonas aeruginosa & E. coli mix", "test": "Synergy in the planktonic phase, biocide challenge with resazurin regrowth readout", "format": "cell-based, Pseudomonas aeruginosa (DSM: 50071) and E. coli (DSM: 1576)", "details": "P. aeruginosa/E. coli, after 48 hours, phosphate buffer pH 7.3, used alone", "description": "Pseudomonas aeruginosa (DSM: 50071) and E. coli (DSM: 1576) cultures were separately prepared from glycerol stocks; first they were streak plated and validated with a microscope. Single colonies were picked and shake flasks were inoculated and left overnight at 37° C. (TSB medium) to produce the initial inoculum. The challenge block (a 96 wells plate) was prepared using phosphate buffer at pH 7.3, (0.0027M potassium chloride, 0.137 M sodium chloride). The Biocide challenging was done at 30° C. Inoculation took place at the start of the experiments and after 48 hours a re-inoculation was done. Challenging was monitored up to 7 days in total. In Table 1, the concentrations used for the synergy experiments are listed. Each experiment was done in triplicate. […] The recovery plates were subsequently read (checked for microbial growth) at 24 and 48 hours after addition of the culture. Plate reading took place twice for each time point, to look at potential changes. Reading took place utilizing separate 96 wells plates pre filled with fresh media. […] This was done in triplicate for each point (the triplicate is already present in the biocide block viz. each point is truly determined in triplicate). […] Ranking was done per average value of three data points determined per experiment. (Recorded in log regrowth). […]"}, "[2]": {"tested_on": "Pseudomonas aeruginosa biofilm", "test": "Biofilm dissipation synergy on MBEC plate pegs", "format": "cell-based", "details": "P. aeruginosa biofilm, 24 hour contact time, 5 day regrowth; pass = total eradication of the biofilm", "description": "One measure of synergism is the industrially accepted method described by Kull, […]. and Mayer, R. L., in Applied Microbiology 9:538-541 (1961), using the ratio determined by the formula: Qa/QA+Qb/QB=Synergy Index (“SI”) […] A Pseudomonas aeruginosa culture was prepared from glycerol stocks. First, the culture was streak plated. Single colonies were selected and shake flasks were inoculated and left overnight at 37° C. (TSB medium). The culture was diluted in phosphate buffer pH 7.3 1:1000000 prior to set up the biofilm plate Biofilm was developed overnight on P&G MBEC plates. The 96 well plates were covered with the lid holding the pegs partially submerged in the growth media. Biofilm was developed on the pegs leading to a total cell amount of 7*10^10 cells per peg. The top plates (with the pegs) were then subsequently washed and then placed into a 96 well challenge plate with the biocidal components in the given amounts. […] The contact time of the biofilms with the microbicidal mix was 24 hours. After the challenging, the biofilms were gently washed, sonicated from the pegs into recovery media (TSB 30 g/l, with resazurin, 0.01%), from these wells directly after sonication 10× dilution series were made on separate plates. These were left to recover for 3 to 5 days at 30° C. […] It could then be back-calculated how many cells remained after challenging of the biofilm with biocides. […]"}},
  "data": [
    {"smiles": "O=CC=O", "note": "[Glyoxal, glyoxal]", "values": [
      {"measurement": "Glyoxal standalone 48 h pass", "setting": "Thermus thermophilus; T. thermophilus, planktonic, after 48 hours, 60° C., standard ocean matrix salinity 2%, used alone", "value": 40, "unit": "ppm"},
      {"measurement": "Sensitivity of Thermus thermophilus vs. Pseudomonas aeruginosa and E. coli", "setting": "Thermus thermophilus; comparison in words, footnote of Table 2", "value": "more sensitive"},
      {"measurement": "Glyoxal standalone 48 h pass", "setting": "[1]", "value": "≥2000", "unit": "ppm"},
      {"measurement": "Glyoxal (standalone pass)", "setting": "[2]", "value": 1280, "unit": "ppm"}
    ]}
  ]
}
